Literature values as cited in patent US20160101079A1 (priority 2014, published 2016).

Key:
[1] = test system: glycoprotein shedding (Ebola virus GP; TACE)
[2] = test system: rotaviruses; conditions: 10 mM
[3] = test system: Human Foreskin (HF) cells infected with HSV-2-strain G; conditions: 3 to 1.5 mM

Compound	concentration at which inhibition of GP shedding was observed [1]	other results
CNC(=O)[C@@H](NC(=O)[C@H](CC(C)C)[C@H](O)C(=O)NO)C(C)(C)C [BB2516]	0.5 mM	–
O=C(O)CN(CCN(CC(=O)O)CC(=O)O)CC(=O)O [EDTA, ethylenediaminetetraacetic acid]	–	effect on rotavirus particles [2]: single-shelled, double-layered, non-infectious viral particles
CNC(=O)[C@H](Cc1c[nH]c2ccccc12)NC(=O)[C@@H](CC(=O)NO)CC(C)C [GM6001]	5 mM	–
COc1ccc(S(=O)(=O)N2Cc3ccccc3C[C@@H]2C(=O)NO)cc1 [MMP-8 inhibitor I]	5 mM	–
O=C(O)c1ccccn1 [picolinic acid]	–	effect on HSV-2 infected HF cells [3]: cause apoptosis of HF infected cells
